Records with an inconclusive call do not appear. Calls of active or inactive are those of the source.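 How the source made its calls: active means fitted curve reaches 40% activation at or below the top valid dose, and every replicate test is called active; inconclusive means replicate tests disagree, some active and some inactive; inactive means all replicate tests inactive, including activity in the wrong direction.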

Chain of Endoplasmic reticulum aminopeptidase 1 (Homo sapiens) (Q9NZ08 whole entry, looked up): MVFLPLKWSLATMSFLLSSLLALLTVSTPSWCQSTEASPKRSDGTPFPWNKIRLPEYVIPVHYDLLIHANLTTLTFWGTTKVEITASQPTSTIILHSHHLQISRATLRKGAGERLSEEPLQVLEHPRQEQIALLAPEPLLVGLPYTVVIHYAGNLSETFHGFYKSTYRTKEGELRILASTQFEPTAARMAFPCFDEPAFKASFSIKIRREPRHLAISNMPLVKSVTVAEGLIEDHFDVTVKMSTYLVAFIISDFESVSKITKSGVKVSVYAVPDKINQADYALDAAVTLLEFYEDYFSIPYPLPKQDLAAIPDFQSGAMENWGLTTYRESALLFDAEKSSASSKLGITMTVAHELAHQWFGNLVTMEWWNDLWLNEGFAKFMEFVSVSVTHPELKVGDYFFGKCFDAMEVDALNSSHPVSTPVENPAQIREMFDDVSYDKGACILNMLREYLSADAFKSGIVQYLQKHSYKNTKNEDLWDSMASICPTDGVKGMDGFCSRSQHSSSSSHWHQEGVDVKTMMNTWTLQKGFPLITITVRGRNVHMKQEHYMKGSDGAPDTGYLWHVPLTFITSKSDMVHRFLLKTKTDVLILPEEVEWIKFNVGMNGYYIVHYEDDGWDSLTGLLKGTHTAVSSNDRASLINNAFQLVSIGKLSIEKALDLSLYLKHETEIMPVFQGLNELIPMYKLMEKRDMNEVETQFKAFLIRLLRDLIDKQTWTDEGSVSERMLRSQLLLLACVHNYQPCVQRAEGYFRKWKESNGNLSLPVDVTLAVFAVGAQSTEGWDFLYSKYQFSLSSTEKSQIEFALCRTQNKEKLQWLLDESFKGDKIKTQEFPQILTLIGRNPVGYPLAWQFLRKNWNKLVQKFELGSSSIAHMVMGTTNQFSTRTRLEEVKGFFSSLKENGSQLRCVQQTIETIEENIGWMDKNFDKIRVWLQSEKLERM

The first experiment addresses Endoplasmic reticulum aminopeptidase 1 (Homo sapiens) (UniProt Q9NZ08). Put plainly: ERAP1 aminopeptidase activity change, dose response, biochemical, fluorescence, cherry-pick (AID 743317). The conditions noted are these: ERAP1 enzyme, Leu-AMC fluorescence, 60 min.
For `C[C@@H]1CCCCO[C@@H](CN(C)Cc2ccc3c(c2)OCO3)[C@@H](C)CN([C@@H](C)CO)C(=O)c2cc(NS(=O)(=O)c3ccccc3)ccc2O1`, the AC40 is 0.563 µM.

`C[C@H](CO)N1C[C@H](C)[C@@H](CN(C)CC2CC2)Oc2c(NC(=O)Nc3ccc(C(F)(F)F)cc3)cccc2C1=O`: the AC40 was 0.757 µM.

As to `Cc1c(O)ccc2c(CN3CCN(Cc4ccccc4)CC3)cc(=O)oc12`, the AC40 was 4.1 µM.

On to `COc1ccc(NC(=O)Nc2cccc3c2O[C@H](CN(C)Cc2ccc(C(=O)O)cc2)[C@H](C)CN([C@H](C)CO)C3=O)cc1`, for which the AC40 is 5.25 µM.

For `Cc1noc(C)c1NC(=O)Nc1ccc2c(c1)C(=O)N([C@H](C)CO)C[C@@H](C)[C@@H](CN(C)Cc1ccc(C(F)(F)F)cc1)OCCCC[C@@H](C)O2`, the AC40 was 2.77 µM.

Consider `C[C@@H]1CCCCO[C@@H](CN(C)Cc2ccc(C(=O)O)cc2)[C@@H](C)CN([C@H](C)CO)C(=O)c2cc(NC(=O)Nc3cccc4ccccc34)ccc2O1`, for which the AC40 was 0.408 µM.

Regarding `COc1ccc(CN(C)C[C@@H]2OCCCC[C@@H](C)Oc3ccc(NS(=O)(=O)c4c(C)noc4C)cc3C(=O)N([C@@H](C)CO)C[C@@H]2C)cc1`, the AC40 was 1.88 µM.

On to `COc1ccc(S(=O)(=O)Nc2ccc3c(c2)C(=O)N([C@@H](C)CO)C[C@H](C)[C@H](CN(C)C)OCCCC[C@@H](C)O3)cc1`, for which the AC40 was 0.419 µM.

As to `C[C@H]1CN([C@@H](C)CO)C(=O)c2cccc(NC(=O)Nc3ccc4c(c3)OCO4)c2O[C@@H]1CN(C)CC1CC1`, the AC40 is 0.77 µM.

`C[C@H]1CN([C@@H](C)CO)C(=O)c2cccc(NC(=O)Nc3ccc(F)cc3)c2O[C@@H]1CN(C)C(=O)Nc1ccc2c(c1)OCO2`: the AC40 is 5.56 µM.

Turning to `Cc1ccccc1-c1ccc2c(c1)O[C@@H](CN(C)Cc1ccc(C(=O)O)cc1)[C@@H](C)CN([C@H](C)CO)S2(=O)=O`, the AC40 is 4.29 µM.

Turning to `C[C@H](CO)N1C[C@H](C)[C@@H](CN(C)C)Oc2c(NC(=O)Nc3ccc(C(F)(F)F)cc3)cccc2C1=O`, the AC40 was 0.762 µM.

Take `C[C@@H]1CCCCO[C@@H](CN(C)Cc2ccccc2)[C@@H](C)CN([C@H](C)CO)C(=O)c2cc(NS(=O)(=O)c3cccs3)ccc2O1`: the AC40 was 0.158 µM.

For the compound `C[C@@H]1CCCCO[C@@H](CN(C)S(C)(=O)=O)[C@@H](C)CN([C@@H](C)CO)C(=O)c2cc(NS(=O)(=O)c3ccc(Cl)cc3)ccc2O1`, the AC40 was 0.266 µM.

Consider `Cc1ccc(S(=O)(=O)c2cc3ccc(O)cc3oc2=O)cc1C`, for which the AC40 is 2.99 µM.

On to `CCCNC(=O)C[C@H]1CC[C@@H]2[C@H](COC[C@H](O)CN2C(=O)Nc2cccc(Cl)c2)O1`, for which the AC40 is 3.41 µM.

Turning to `COc1ccc(C(=O)O)cc1S(=O)(=O)Nc1cc(C(F)(F)F)ccc1N1CCCCC1`, the AC40 was 0.246 µM.

As for `COc1ccc(CN(C)C[C@@H]2OCCCC[C@@H](C)Oc3ccc(NS(=O)(=O)c4cccs4)cc3C(=O)N([C@H](C)CO)C[C@@H]2C)cc1`, the AC40 is 0.161 µM.

With `C[C@@H]1CCCCO[C@@H](CN(C)C(=O)CCC(F)(F)F)[C@@H](C)CN([C@@H](C)CO)C(=O)c2cc(NS(=O)(=O)c3ccccc3)ccc2O1`, the AC40 is 1.73 µM.

For `O=C(C[C@H]1CC[C@@H]2[C@H](COC[C@@H](O)CN2C(=O)Nc2cccc(Cl)c2)O1)N1CCCCC1`, the AC40 was 0.812 µM.

On to `CCCN(C)C[C@@H]1OCCCC[C@@H](C)Oc2ccc(NS(=O)(=O)c3ccc(C)cc3)cc2C(=O)N([C@@H](C)CO)C[C@@H]1C`, for which the AC40 was 0.133 µM.

As to `COc1ccc(CN(C)C[C@H]2OCCCC[C@@H](C)Oc3ccc(NS(=O)(=O)c4cccs4)cc3C(=O)N([C@H](C)CO)C[C@H]2C)cc1`, the AC40 is 1.23 µM.

For the compound `Cc1ccc(-c2cc(C(=O)N3CCCC3)c3ccccc3n2)s1`, the AC40 is 6.45 µM.

In the case of `O=C(C[C@@H]1CC[C@@H]2[C@H](COC[C@H](O)CN2C(=O)Nc2cccc(Cl)c2)O1)N1CCCCC1`, the AC40 is 0.364 µM.

Consider `COc1ccc(CN(C)C[C@@H]2OCCCC[C@@H](C)Oc3ccc(NS(=O)(=O)c4cccs4)cc3C(=O)N([C@H](C)CO)C[C@H]2C)cc1`, for which the AC40 is 1.15 µM.

As to `CCN(CC)c1ccc2c(C)c(Cl)c(=O)oc2c1`, the AC40 is 8.19 µM.

As for `CCCN(C)C[C@@H]1OCCCC[C@@H](C)Oc2ccc(NS(=O)(=O)c3ccc(C)cc3)cc2C(=O)N([C@H](C)CO)C[C@@H]1C`, the AC40 is 1.42 µM.

For the compound `C[C@H](CO)N1C[C@H](C)[C@H](CN(C)Cc2ccc(C(=O)O)cc2)Oc2c(NC(=O)Nc3ccccc3)cccc2C1=O`, the AC40 was 2.46 µM.

For the compound `COc1ccc(NC(=O)Nc2ccc3c(c2)C(=O)N([C@H](C)CO)C[C@@H](C)[C@H](CN(C)Cc2ccc(C(=O)O)cc2)OCCCC[C@@H](C)O3)cc1`, the AC40 is 3.3 µM.

`C[C@H](CO)N1C[C@H](C)[C@H](CN(C)Cc2ccncc2)Oc2c(NC(=O)Nc3ccc(C(F)(F)F)cc3)cccc2C1=O`: the AC40 is 0.704 µM.

Still in this experiment, the particulars now being: ERAP1 enzyme, Leu-AMC fluorescence, 60 min; at 5.6 µM (top of the series).
Consider `CCCc1cc(=O)oc2c(CN3CCN(C)CC3)c(O)ccc12`, for which the activity increase (activation) was -44.3% (inactive).

As to `Cc1cc2nc(-c3ccc[nH]c3=O)[nH]c2cc1C`, the activity increase (activation) is -30.6% (inactive).

The experiment is the same for the next values; noted with them: ERAP1 enzyme, Leu-AMC fluorescence, 60 min; at 11 µM (top of the series).
With `Cc1c(Cc2ccccc2)c(=O)oc2cc(O)ccc12`, the activity increase (activation) was -39.3% (inactive).

As for `N#Cc1c(N2CCNCC2)nc(-c2ccco2)c2c1CCCC2`, the activity increase (activation) is -51.7% (inactive).

In the case of `COc1cc2ccc(=O)oc2cc1O`, the activity increase (activation) is -97.7% (inactive).

For `C/C(=N\NC(=O)CC#N)c1cc2ccc(O)cc2oc1=O`, the activity increase (activation) is -67.1% (inactive).

Consider `CCc1c(C)c2cc(Cl)c(O)c(CN(C)C)c2oc1=O`, for which the activity increase (activation) was -92.5% (inactive).

On to `CCc1c(C)c2cc(Cl)c(O)c(CN(CC)CC)c2oc1=O`, for which the activity increase (activation) was -62.3% (inactive).

For the compound `CCCNC(=O)N(C)C[C@@H]1Oc2ncc(-c3ccncc3)cc2C(=O)N([C@H](C)CO)C[C@@H]1C`, the activity increase (activation) is -31.8% (inactive).

In the case of `CCCCCCC[C@H](N)[C@H](O)C(=O)N(C)[C@@H](CCS(C)=O)C(=O)N[C@@H](Cc1ccc(O)cc1)C(=O)N[C@@H](Cc1ccc(O)cc1)C(=O)O` (stereo partly specified), the activity increase (activation) was -57.4% (inactive).

Take `Cc1cc(=O)oc2cc(NS(=O)(=O)c3ccc(F)cc3)ccc12`: the activity increase (activation) was -52% (inactive).

Take `NC(=NCCc1c[nH]c2ccccc12)NS(=O)(=O)c1cc(F)ccc1F`: the activity increase (activation) is -59.5% (inactive).

For the compound `Cc1cc(=O)oc2c(CN3CCCCC3)c(O)ccc12`, the activity increase (activation) was -81.1% (inactive).

With `CSC1=NS(=O)(=O)c2c(C)nn(C)c2S1`, the activity increase (activation) was -42.5% (inactive).

As to `CC(C)(C)c1cc(N2CCOCC2)n2ncc(-c3ccccc3)c2n1`, the activity increase (activation) was -42% (inactive).

As for `O=c1ccc2cc(O)c(O)cc2o1`, the activity increase (activation) was -53.9% (inactive).

Turning to `CCN(CC)Cc1c(O)c(Cl)cc2c(C)cc(=O)oc12`, the activity increase (activation) was -83.4% (inactive).

`O=S(=O)(c1ccc(N2CCC(c3ccc(Cl)cc3)=N2)cc1)N(CCO)CCO`: the activity increase (activation) is -40.9% (inactive).

In the case of `Cc1c(-c2ccccc2)c(=O)oc2cc(O)ccc12`, the activity increase (activation) was -87.3% (inactive).

`CN1CCCC1CCNc1ccc2c(=O)c3ccccc3oc2c1` (stereo unspecified): the activity increase (activation) was -115% (inactive).

For `Cc1c(C)c2ccc(O)c(CN3CCN(C)CC3)c2oc1=O`, the activity increase (activation) was -52.8% (inactive).

The values above are taken from PubChem BioAssay AID743317 (Broad Institute, 2014).
